Source: ChEMBL document CHEMBL5523687, “Pentafluorosulfanyl-substituted biaryl derivatives as MATE-type transporter inhibitors targeting drug-resistant bacteria” (Bioorg Med Chem, 2024)
Converted amounts (≈) assume the structure as drawn. The source made the active and inactive calls. The rule behind the calls is not given here.

How the values were obtained:
Escherichia coli [1] = assay: Inhibition of MATE-type HmrM in norfloxacin-resistant Escherichia coli KAM32 assessed as norfloxacin antibacterial activity efficacy at 30 uM measured for 18 hrs incubation by CLSI based microplate reader analysis relative to norfloxacin alone
Escherichia coli [2] = assay: Inhibition of MATE-type HmrM in norfloxacin-resistant Escherichia coli KAM32 assessed as norfloxacin antibacterial activity by measuring norfloxacin MIC measured for 18 hrs incubation by CLSI based microplate reader analysis
Escherichia coli [3] = assay: Antibacterial activity against Norfloxacin sensitive Escherichia coli KAM32 harboring PBR322 assessed as inhibition of bacterial growth by measuring efficacy at 30 uM measured for 18 hrs by CLSI based analysis relative to control; format: functional
Escherichia coli [4] = assay: Antibacterial activity against Norfloxacin resistant Escherichia coli KAM32 harboring PBR322 assessed as inhibition of bacterial growth by measuring efficacy at 30 uM measured for 18 hrs by CLSI based analysis relative to control; format: functional
Escherichia coli [5] = assay: Antibacterial activity against Norfloxacin sensitive Escherichia coli KAM32 harboring PBR322 assessed as reduction in bacterial growth measured for 18 hrs by CLSI based analysis; format: functional
Escherichia coli [6] = assay: Antibacterial activity against Norfloxacin resistant Escherichia coli KAM32 harboring PBR322 hmrM assessed as reduction in bacterial growth measured for 18 hrs by CLSI based analysis; format: functional
[7] = Inhibition of MATE-type HmrM (unknown origin); design: species or system Bacteria
Bacteria = assay: Inhibition of MATE-type HmrM (unknown origin) at 100 uM relative to control
Escherichia coli [8] = assay: Antibacterial activity against Escherichia coli KAM32 harboring PBR322 hmrM assessed as effect on bacterial growth at 10 uM measured for 30 hrs by microplate reader analysis; format: functional, organism-based

Row | SMILES | Efficacy (Escherichia coli [1]) [%] | MIC (Escherichia coli [2]) [µg/mL] | further results
1 | CN/C(=N\C#N)NCCCC#Cc1cccc(S(F)(F)(F)(F)F)c1 | 100 | 0.02 (≈ 0.0546 µM) | –
2 | C#Cc1cccc(CCCCCN/C(=N/C#N)NC)c1 | 57 | 0.04 (≈ 0.149 µM) | –
3 | COCCCCCc1cccc(Cl)c1 | 0 | 0.056 (≈ 0.263 µM) | –
4 | CCn1cc(C(=O)O)c(=O)c2cc(F)c(N3CCNCC3)cc21 [NORFLOXACIN] | – | – | Efficacy (Escherichia coli [3]): 100%; Efficacy (Escherichia coli [4]): 0%; MIC (Escherichia coli [5]): 0.014 µg/mL (≈ 0.0438 µM); MIC (Escherichia coli [6]): 0.056 µg/mL (≈ 0.175 µM)
5 | OCCCCCc1cccc(Cl)c1 | 0 | 0.056 (≈ 0.282 µM) | –
6 | CN/C(=N\C#N)NCCCCCc1cccc(I)c1 | 0 | 0.056 (≈ 0.151 µM) | –
7 | CN/C(=N/C#N)NCc1ccc(-c2cccc(Cl)c2)cc1 | 100 | 0.014 (≈ 0.0469 µM) | –
8 | CN/C(=N\C#N)NCCCCCc1cccc(S(C)(=O)=O)c1 | 38 | 0.04 (≈ 0.124 µM) | –
9 | CN/C(=N\C#N)NCCCCc1cccc(Cl)c1 | 38 | 0.04 (≈ 0.151 µM) | –
10 | Clc1cccc(CCCCCn2ccnc2)c1 | 38 | 0.04 (≈ 0.161 µM) | –
11 | CN/C(=N\C#N)NCc1cccc(-c2cccc(Cl)c2)c1 | 38 | 0.04 (≈ 0.134 µM) | –
12 | CN/C(=N\C#N)NCCC/C=C\c1cccc(Cl)c1 | 71 | 0.026 (≈ 0.0939 µM) | –
13 | CN/C(=N\C#N)NCCCCCc1cccc(S(F)(F)(F)(F)F)c1 | 71 | 0.026 (≈ 0.0702 µM) | –
14 | CN/C(=N/C#N)NCC#CC#Cc1cccc(Cl)c1 | 0 | 0.056 (≈ 0.207 µM) | –
15 | CN(C)/C(=N\C#N)N(C)CCCC#Cc1cccc(S(F)(F)(F)(F)F)c1 | 100 | 0.014 (≈ 0.0355 µM) | EC50 [7]: 6.8 µM
16 | Clc1cccc(CCCCCN2CCOCC2)c1 | 0 | 0.056 (≈ 0.209 µM) | –

Row | SMILES | Efficacy (Escherichia coli [1]) [%] | MIC (Escherichia coli [2]) [µg/mL] | further results
17 | CN/C(=N\C#N)NCCCC#Cc1cccc(Cl)c1 | 71 | 0.026 (≈ 0.0946 µM) | –
18 | CN(C)/C(=N\C#N)N(C)CCCCCc1cccc(Cl)c1 | 71 | 0.026 (≈ 0.0847 µM) | –
19 | CN/C(=N\C#N)NCCCCCc1cccc(C)c1 | 57 | 0.032 (≈ 0.124 µM) | –
20 | CN/C(=N\C#N)NCCCCCc1cccc(C#N)c1 | 57 | 0.032 (≈ 0.119 µM) | –
21 | CN/C(=N\C#N)NCCCCCc1cccc(NS(C)(=O)=O)c1 | 38 | 0.04 (≈ 0.119 µM) | –
22 | CN/C(=N\C#N)NCCCCCc1cccc(Cl)c1 | 57 | 0.032 (≈ 0.115 µM) | –
23 | CN/C(=N\C#N)NCCC[C@H]1C[C@@H]1c1cccc(Cl)c1 | 57 | 0.032 (≈ 0.11 µM) | –
24 | CN/C(=N\C#N)NCCCNC(=O)c1cccc(Cl)c1 | 0 | 0.056 (≈ 0.191 µM) | –
25 | CN/C(=N\C#N)NCc1ccccc1-c1cccc(Cl)c1 | 38 | 0.04 (≈ 0.134 µM) | –
26 | CN(C)/C(=N\C#N)N(C)CCCC#Cc1cccc(Cl)c1 | 100 | 0.014 (≈ 0.0462 µM) | EC50 [7]: 6.8 µM
27 | CN/C(=N\C#N)NCCC/C=C/c1cccc(Cl)c1 | 71 | 0.026 (≈ 0.0939 µM) | –
28 | CN(C)/C(=N\C#N)N(C)Cc1ccc(-c2cccc(Cl)c2)cc1 | 100 | 0.014 (≈ 0.0428 µM) | EC50 [7]: 4 µM
29 | CN/C(=N\C#N)NCCCCCc1cccc(Br)c1 | 19 | 0.048 (≈ 0.148 µM) | –
30 | CN/C(=N\C#N)NCCCCCc1cccc(F)c1 | 38 | 0.04 (≈ 0.152 µM) | Efficacy (Bacteria): 92%; EC50 [7]: > 30 µM
31 | CN/C(=N\C#N)NCCC[C@@H]1C[C@@H]1c1cccc(Cl)c1 | 57 | 0.032 (≈ 0.11 µM) | –
32 | CN(C)/C(=N\C#N)N(C)Cc1ccc(-c2cccc(S(F)(F)(F)(F)F)c2)cc1 | 100 | 0.014 (≈ 0.0335 µM) | EC50 [7]: 1.8 µM; Activity (Escherichia coli [8]): inactive
